According to patent US20260356804A1, “SODIUM CHANNEL BLOCKING COMPOUNDS, DERIVATIVES THEREOF, AND METHODS OF THEIR USE” (LATIGO BIOTHERAPEUTICS, INC., priority 2022, published 2026):

What follows are compounds tested against T1, human Nav1.8/β1 (Homo sapiens, UniProt Q9Y5Y9) (assay: Compound Profiling Human NaV1.8/β1 Cell Line—Sophion QPatch II Assay (automated patch clamp, stably transfected HEK293 cells)). Settings: not given.
T1 construct: host or cells: HEK293
Assay type: cell-based
Protocol: Compounds were tested on recombinant human Nav1.8/β1 stably transfected HEK293 (Eurofins, CYL3025, St. Charles, MO) cells using the QPatch II system (Sophion Bioscience A/S, Ballerup—Denmark), an automated patch clamp device. Cells were cultured at 37° C./5% CO2 in DMEM/F-12 supplemented with 10% fetal bovine serum, 1× Non-Essential Amino Acids, and selection antibiotics (0.625 μg/mL Puromycin, 400 μg/mL Geneticin, and 100 μg/mL Hygromycin). One or two days prior to recording, cells were moved to a lower temperature 30° C./5% CO2 incubator to increase surface expression of the channels. On the day of the recordings, cells in culture dishes were washed twice with Ca^2+—Mg^2+ free DPBS and treated with Detachin (Genlantis, San Diego) for 3 minutes and then resuspended in Serum Free Medium (EX-CELL® ACF CHO Medium for Cell Culture (Sigma-Aldrich) supplemented with 0.04 mg/mL soybean trypsin Inhibitor and 25 mM HEPES (all components supplied by Sigma-Aldrich, St. Louis, MO) and allowed to recover for a minimum of 20 minutes in the onboard QStirrer. All experiments were performed at ambient temperature. Intracellular solution contained (mM): CsCl, 50; CsF, 90; MgCl2, 2; EGTA, 5; HEPES, 10; pH adjusted to 7.2 with CsOH. Extracellular solution contained (mM): NaCl, 137; KCl, 4; CaCl2), 3.8; MgCl2, 1; HEPES, 10; Glucose, 10; pH adjusted to 7.4 with NaOH. [LEFT OUT].
Compounds were tested in an interleaved manner across two cohorts of wells to develop an aggregate 8-point concentration response curve. Final concentrations include 0.1% DMSO and 0.03% pluronic Acid. In general, the concentration range spans a range from 0.01-300 nM. Compounds were diluted 1:10 with extracellular solution within their respective cohort. DMSO (0.1% by volume) served as a vehicle control to ascertain assay performance.
(§1) Whole cell patch clamp recordings were conducted according to Sophion standard procedure for QPatch II®. Cells were held at a holding potential of −120 mV. A depolarizing step to 10 mV for 30 ms was applied to elicit inward Na^+ currents. Inter-sweep interval was 15 sec. Following establishment of the whole-cell configuration in extracellular solution, cells were washed twice in extracellular solution containing 0.1% DMSO and 0.03% pluronic acid to stabilize the baseline current. Compounds were then applied by the QPatch II system into each well in an ascending manner within cohort and the current was recorded for five minutes for each concentration. Percent of current remaining was determined by taking the average of the last 5 sweeps within each concentration and normalizing to the latest pre-compound saline period. The potency (IC50) values of the compounds were only assessed against resting state block. Wells whose initial sodium current magnitude were below 2 nA or whole cell resistance fell below 100 MΩ were excluded from analysis.
as §1, with “MO” for “MΩ”, “analysis. […]” for “analysis.”

T1 sequence (Q9Y5Y9 whole entry): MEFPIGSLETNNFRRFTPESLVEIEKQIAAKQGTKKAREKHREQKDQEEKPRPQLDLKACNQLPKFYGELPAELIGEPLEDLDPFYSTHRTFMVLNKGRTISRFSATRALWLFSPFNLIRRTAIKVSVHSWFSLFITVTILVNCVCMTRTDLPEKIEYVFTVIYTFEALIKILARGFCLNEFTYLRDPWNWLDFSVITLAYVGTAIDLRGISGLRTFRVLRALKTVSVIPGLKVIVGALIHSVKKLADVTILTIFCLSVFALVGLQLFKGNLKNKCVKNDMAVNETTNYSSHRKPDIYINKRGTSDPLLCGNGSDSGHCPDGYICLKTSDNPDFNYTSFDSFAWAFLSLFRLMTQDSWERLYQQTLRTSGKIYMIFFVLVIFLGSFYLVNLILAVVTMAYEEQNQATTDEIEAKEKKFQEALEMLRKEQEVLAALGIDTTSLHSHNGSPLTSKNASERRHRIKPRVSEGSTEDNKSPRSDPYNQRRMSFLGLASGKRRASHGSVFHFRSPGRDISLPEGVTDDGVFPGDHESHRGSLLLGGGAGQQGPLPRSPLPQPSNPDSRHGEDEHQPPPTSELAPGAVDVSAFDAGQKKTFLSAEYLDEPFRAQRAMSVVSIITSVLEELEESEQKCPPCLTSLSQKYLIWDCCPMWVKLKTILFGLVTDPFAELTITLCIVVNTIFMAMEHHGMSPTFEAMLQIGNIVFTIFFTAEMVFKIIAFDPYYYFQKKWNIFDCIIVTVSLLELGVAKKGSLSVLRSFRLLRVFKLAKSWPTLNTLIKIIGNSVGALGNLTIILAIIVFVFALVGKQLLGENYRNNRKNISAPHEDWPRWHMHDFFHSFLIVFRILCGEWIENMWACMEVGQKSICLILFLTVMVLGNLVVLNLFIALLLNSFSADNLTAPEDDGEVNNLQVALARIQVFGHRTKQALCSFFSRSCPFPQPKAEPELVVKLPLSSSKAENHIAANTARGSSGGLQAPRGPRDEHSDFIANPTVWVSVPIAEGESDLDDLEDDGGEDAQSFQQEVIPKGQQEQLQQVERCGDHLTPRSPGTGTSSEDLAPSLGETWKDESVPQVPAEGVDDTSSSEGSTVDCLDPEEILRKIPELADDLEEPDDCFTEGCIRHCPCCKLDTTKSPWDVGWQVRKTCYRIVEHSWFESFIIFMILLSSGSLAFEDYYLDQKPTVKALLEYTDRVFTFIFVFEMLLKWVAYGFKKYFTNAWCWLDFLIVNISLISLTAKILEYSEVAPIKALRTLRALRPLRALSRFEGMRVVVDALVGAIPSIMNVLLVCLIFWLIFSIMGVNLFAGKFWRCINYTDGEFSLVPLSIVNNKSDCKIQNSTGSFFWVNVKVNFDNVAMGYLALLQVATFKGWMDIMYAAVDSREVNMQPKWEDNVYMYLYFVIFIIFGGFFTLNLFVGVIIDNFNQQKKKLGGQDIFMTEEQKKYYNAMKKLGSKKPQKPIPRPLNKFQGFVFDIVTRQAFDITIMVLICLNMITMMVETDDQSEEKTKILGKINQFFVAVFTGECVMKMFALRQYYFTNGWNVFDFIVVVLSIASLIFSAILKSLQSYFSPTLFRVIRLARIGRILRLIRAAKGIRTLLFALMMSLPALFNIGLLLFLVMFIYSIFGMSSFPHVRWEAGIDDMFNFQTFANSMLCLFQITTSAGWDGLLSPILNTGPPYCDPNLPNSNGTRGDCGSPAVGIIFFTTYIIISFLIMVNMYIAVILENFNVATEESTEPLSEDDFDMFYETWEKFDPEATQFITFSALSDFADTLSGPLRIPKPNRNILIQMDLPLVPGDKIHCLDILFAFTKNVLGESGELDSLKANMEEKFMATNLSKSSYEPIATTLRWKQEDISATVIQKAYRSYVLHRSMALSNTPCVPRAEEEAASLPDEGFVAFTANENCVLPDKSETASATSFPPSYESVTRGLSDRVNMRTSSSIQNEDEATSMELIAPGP
T1 sequence (Q07699 19-218 partner): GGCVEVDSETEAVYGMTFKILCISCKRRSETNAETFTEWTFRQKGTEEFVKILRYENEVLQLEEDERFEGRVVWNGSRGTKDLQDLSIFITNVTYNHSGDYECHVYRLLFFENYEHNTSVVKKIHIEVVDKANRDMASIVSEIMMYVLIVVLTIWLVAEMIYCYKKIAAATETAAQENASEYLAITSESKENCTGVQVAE

First: COc1cc(C#N)ccc1Oc1cc(C(F)(F)F)c(Cl)cc1C(=O)Nc1ccc(F)c([S@](C)(=N)=O)c1 [Example 8A, (R)-5-chloro-2-(4-cyano-2-methoxyphenoxy)-N-(4-fluoro-3-(S-methylsulfonimidoyl)phenyl)-4-(trifluoromethyl)benzamide]
Second: COc1cc(C#N)ccc1Oc1cc(C(F)(F)F)c(Cl)cc1C(=O)Nc1ccc(F)c([S@@](C)(=N)=O)c1 [Example 26A]
The IC50 of the first is lower: 5 to 50 nM for the first, > 200 nM for the second.

First: COc1cc(C#N)ccc1Oc1cc(C(F)(F)F)c(Cl)cc1C(=O)Nc1ccnc([S@](C)(=N)=O)c1 [Example 12A, (R)-5-chloro-2-(4-cyano-2-methoxyphenoxy)-N-(2-(S-methylsulfonimidoyl)pyridin-4-yl)-4-(trifluoromethyl)benzamide]
Second: COc1cc(C#N)ccc1Oc1cc(C(F)(F)F)c(Cl)cc1C(=O)Nc1cccc([S@@](C)(=N)=O)c1 [Example 25A]
The IC50 of the first is lower: 5 to 50 nM for the first, > 200 nM for the second. The first is the more potent here.

`Cc1nc(F)ccc1Oc1cc(C(F)(F)F)c(Cl)cc1C(=O)Nc1ccnc(S(C)(=O)=O)c1` [Example 17A] and `Cc1nc(F)ccc1Oc1ccc(C(F)(F)F)c(Cl)c1C(=O)Nc1ccnc([S@](C)(=N)=O)c1` [Example 32A] fall in the same range of IC50: 5 to 50 nM for the first, 5 to 50 nM for the second.

First: Cc1cc(F)ncc1Oc1cc(C(F)(F)F)c(Cl)cc1C(=O)Nc1ccc(F)c([S@](C)(=N)=O)c1 [Example 24A]
Second: Cc1nc(F)ccc1Oc1cc(C(F)(F)F)ccc1C(=O)Nc1ccc(F)c([S@@](C)(=N)=O)c1 [Example 29A]
The IC50 of the first is lower: 100 to 200 nM for the first, > 200 nM for the second. The first is the more potent here.

First: COc1cc(C#N)ccc1Oc1cc(C(F)(F)F)c(Cl)cc1C(=O)Nc1cccc([S@](C)(=N)=O)c1 [Example 27A]
Second: COc1cc(C#N)ccc1Oc1ncc(C(F)(F)F)c(C)c1C(=O)Nc1cccc([S@](=N)(=O)CCCO)c1 [Example 57C]
The IC50 of the first is higher: > 200 nM for the first, 5 to 50 nM for the second.

First: Cc1nc(F)ccc1Oc1cc(C(F)(F)F)ccc1C(=O)Nc1ccnc([S@](C)(=N)=O)c1 [Example 28A]
Second: Cc1nc(F)ccc1Oc1cc(C(F)(F)F)ccc1C(=O)Nc1cccc([S@@](C)(=N)=O)c1 [Example 31A]
The IC50 of the first is higher: > 200 nM for the first, 100 to 200 nM for the second.

First: Cc1nc(F)ccc1Oc1cc(C(F)(F)F)ccc1C(=O)Nc1ccc(F)c([S@](C)(=N)=O)c1 [Example 30A]
Second: Cc1nc(F)ccc1Oc1ncc(C(F)(F)F)c(C)c1C(=O)Nc1cccc(S(=N)(=O)CC(C)(C)N)c1 (stereo not drawn) [Example 53C]
The IC50 of the first is higher: 100 to 200 nM for the first, 5 to 50 nM for the second. The second is the more potent here.

`CCC(N)(CC)CCS(=N)(=O)c1cccc(NC(=O)c2c(Oc3ccc(F)nc3C)ncc(C(F)(F)F)c2C)c1` (stereo not drawn) [Example 41C, N-(3-(3-amino-3-ethylpentylsulfonimidoyl)phenyl)-2-((6-fluoro-2-methylpyridin-3-yl)oxy)-4-methyl-5-(trifluoromethyl)nicotinamide] and `Cc1nc(F)ccc1Oc1ncc(C(F)(F)F)c(C)c1C(=O)Nc1cccc(S(=N)(=O)CCC(C)(C)N)c1` (stereo not drawn) [Example 52C] fall in the same range of IC50: 5 to 50 nM for the first, 5 to 50 nM for the second.

First: Cc1nc(F)ccc1Oc1ncc(C(F)(F)F)c(C)c1C(=O)Nc1cccc(S(=N)(=O)CCC(C)(C)O)c1 (stereo not drawn) [Example 42C, 2-((6-fluoro-2-methylpyridin-3-yl)oxy)-N-(3-(3-hydroxy-3-methylbutylsulfonimidoyl)phenyl)-4-methyl-5-(trifluoromethyl)nicotinamide]
Second: CNC(C)(C)CCS(=N)(=O)c1cccc(NC(=O)c2c(Oc3ccc(F)nc3C)ncc(C(F)(F)F)c2C)c1 (stereo not drawn) [Example 50C]
The IC50 of the first is higher: > 200 nM for the first, 5 to 50 nM for the second.

`Cc1nc(F)ccc1Oc1ncc(C(F)(F)F)c(C)c1C(=O)N(C)c1cccc([S@](C)(=N)=O)c1` [Example 46C, (R)-2-((6-fluoro-2-methylpyridin-3-yl)oxy)-N,4-dimethyl-N-(3-(S-methylsulfonimidoyl)phenyl)-5-(trifluoromethyl)nicotinamide] and `Cc1nc(F)ccc1Oc1ncc(C(F)(F)F)c(C)c1C(=O)N(C)c1cccc([S@@](C)(=N)=O)c1` [Example 47C, (S)-2-((6-fluoro-2-methylpyridin-3-yl)oxy)-N,4-dimethyl-N-(3-(S-methylsulfonimidoyl)phenyl)-5-(trifluoromethyl)nicotinamide] cannot be ordered by IC50: > 200 nM for the first, > 200 nM for the second.

First: Cc1nc(F)ccc1Oc1ncc(C(F)(F)F)c(C)c1C(=O)Nc1cc(S(=N)(=O)CCCO)ccn1 (stereo not drawn) [Example 49C]
Second: Cc1cc(F)ccc1Oc1ncc(C(F)(F)F)c(C)c1C(=O)Nc1cccc(S(=N)(=O)CCCO)c1 (stereo not drawn) [Example 54C]
The IC50 of the first is higher: > 200 nM for the first, 50 to 100 nM for the second.

`CNC(C)(C)CS(=N)(=O)c1cccc(NC(=O)c2c(Oc3ccc(F)nc3C)ncc(C(F)(F)F)c2C)c1` (stereo not drawn) [Example 51C] and `CNCCCS(=N)(=O)c1cccc(NC(=O)c2c(Oc3ccc(F)cc3C)ncc(C(F)(F)F)c2C)c1` (stereo not drawn) [Example 56C] fall in the same range of IC50: 5 to 50 nM for the first, 5 to 50 nM for the second.

`Cc1cc(F)ccc1Oc1ncc(C(F)(F)F)c(C)c1C(=O)Nc1cccc(S(=N)(=O)CCCN(C)C)c1` (stereo not drawn) [Example 55C] and `COc1cc(C#N)ccc1Oc1ncc(C(F)(F)F)c(C)c1C(=O)Nc1cccc(S(=N)(=O)CCCN(C)C)c1` (stereo not drawn) [Example 59C] fall in the same range of IC50: 5 to 50 nM for the first, 5 to 50 nM for the second.

Compared with `COc1cc(C#N)ccc1Oc1ncc(C(F)(F)F)c(C)c1C(=O)Nc1cccc([S@@](=N)(=O)CCCO)c1` [Example 58C], `CNCCCS(=N)(=O)c1cccc(NC(=O)c2c(Oc3ccc(C#N)cc3OC)ncc(C(F)(F)F)c2C)c1` (stereo not drawn) [Example 60C] is lower in IC50: 5 to 50 nM for the first, < 5 nM for the second.

Same assay, conditions: P1, resting state block; Nav1.8/β1 HEK293 cells, holding potential −120 mV; first set of compounds; read-out: P1 (IC50, resting state block)

`COc1cc(Br)ccc1Oc1cc(C(F)(F)F)c(Cl)cc1C(=O)Nc1ccnc([S@](C)(=N)=O)c1` [Example 11A, (R)-2-(4-bromo-2-methoxyphenoxy)-5-chloro-N-(2-(S-methylsulfonimidoyl)pyridin-4-yl)-4-(trifluoromethyl)benzamide] and `COc1cc(Br)ccc1Oc1cc(C(F)(F)F)c(Cl)cc1C(=O)Nc1ccnc([S@@](C)(=N)=O)c1` [Example 16A] cannot be ordered by IC50: < 5 nM for the first, < 5 nM for the second.

Compared with `COc1cc(C#N)ccc1Oc1cc(C(F)(F)F)c(Cl)cc1C(=O)Nc1ccnc([S@@](C)(=N)=O)c1` [Example 15A], `Cc1cc(F)ncc1Oc1cc(C(F)(F)F)c(Cl)cc1C(=O)Nc1ccnc([S@@](C)(=N)=O)c1` [Example 19A] is higher in IC50: 5 to 50 nM for the first, > 200 nM for the second. The first is the more potent here.

First: Cc1nc(F)ccc1Oc1cc(C(F)(F)F)ccc1C(=O)Nc1ccnc([S@@](C)(=N)=O)c1 [Example 18A]
Second: Cc1cc(F)ncc1Oc1cc(C(F)(F)F)c(Cl)cc1C(=O)Nc1ccnc([S@](C)(=N)=O)c1 [Example 20A]
The IC50 of the first is higher: > 200 nM for the first, 100 to 200 nM for the second.

First: Cc1cc(F)ncc1Oc1cc(C(F)(F)F)c(Cl)cc1C(=O)Nc1cccc([S@@](C)(=N)=O)c1 [Example 21A]
Second: Cc1cc(F)ncc1Oc1cc(C(F)(F)F)c(Cl)cc1C(=O)Nc1cccc([S@](C)(=N)=O)c1 [Example 22A]
The IC50 of the first is higher: 100 to 200 nM for the first, 50 to 100 nM for the second. The second is the more potent here.

With `Cc1cc(F)ncc1Oc1cc(C(F)(F)F)c(Cl)cc1C(=O)Nc1ccc(F)c([S@@](C)(=N)=O)c1` [Example 23A] the IC50 was > 200 nM.

Same assay, conditions: P1, resting state block; Nav1.8/β1 HEK293 cells, holding potential −120 mV; fourth set of compounds; read-out: P1 (IC50, resting state block)

For `Cc1nc(F)ccc1Oc1ncc(C(F)(F)F)c(C)c1C(=O)Nc1cccc(S2(=O)=NC(=O)CC2)c1` (single isomer, unassigned) [Example 30D, 2-((6-fluoro-2-methylpyridin-3-yl)oxy)-4-methyl-N-(3-(1-oxido-3-oxo-4,5-dihydro-3H-1l6-isothiazol-1-yl)phenyl)-5-(trifluoromethyl)nicotinamide], the IC50 was > 200 nM.
`Cc1nc(F)ccc1Oc1ncc(C(F)(F)F)c(C)c1C(=O)Nc1cccc(S2(=O)=NC(=O)CC2)c1` (single isomer, unassigned) [Example 31D, 2-((6-fluoro-2-methylpyridin-3-yl)oxy)-4-methyl-N-(3-(1-oxido-3-oxo-4,5-dihydro-3H-1l6-isothiazol-1-yl)phenyl)-5-(trifluoromethyl)nicotinamide] was tested, and the IC50 was 50 to 100 nM.
